Test results: PubChem BioAssay AID248 (DTP/NCI, 2004)
Where “and” joins values, the source holds several entries; their conditions need not be identical. Identical values can stand only once. Inconclusive results and toxic doses are left out. Rule as the data show it: active = T/C of 150% or more; inactive = T/C below 125%.

Tested on: L1210 leukemia ip in BDF1 mice, survival T/C
Experiment: NCI In Vivo Anticancer Drug Screen. Data for tumor model L1210 Leukemia (intraperitoneal) in B6D2F1 (BDF1) mice
Conditions: endpoint: mean survival time, higher = longer survival
Method in brief: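 Value reflects the ratio of survival in compound-treated mice to survival in vehicle-treated controls, with both groups carrying the same transplanted tumor.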

[1] = dose: 100.0 mg/kg/injection, schedule: Q04DX003 (ip), vehicle: saline with Tween-80
[2] = dose: 200.0 mg/kg/injection, schedule: Q04DX003 (ip), vehicle: saline with Tween-80
[3] = dose: 400.0 mg/kg/injection, schedule: Q04DX003 (ip), vehicle: saline with Tween-80
[4] = dose: 100.0 mg/kg/injection, schedule: Q04DX003 (ip), vehicle: Klucel (hydroxypropylcellulose) (HPC)
[5] = dose: 200.0 mg/kg/injection, schedule: Q04DX003 (ip), vehicle: Klucel (hydroxypropylcellulose) (HPC)
[6] = dose: 400.0 mg/kg/injection, schedule: Q04DX003 (ip), vehicle: Klucel (hydroxypropylcellulose) (HPC)
[7] = dose: 200.0 mg/kg/injection, schedule: Q01DX009 (ip), vehicle: saline with Tween-80
[8] = dose: 100.0 mg/kg/injection, schedule: Q01DX009 (ip), vehicle: saline
[9] = dose: 100.0 mg/kg/injection, schedule: Q04DX003 (ip), vehicle: saline
[10] = dose: 200.0 mg/kg/injection, schedule: Q04DX003 (ip), vehicle: saline
[11] = dose: 100.0 mg/kg/injection, schedule: Q01DX009 (ip), vehicle: Klucel (hydroxypropylcellulose) (HPC)
[12] = dose: 200.0 mg/kg/injection, schedule: Q01DX009 (ip), vehicle: Klucel (hydroxypropylcellulose) (HPC)
[13] = dose: 400.0 mg/kg/injection, schedule: Q01DX009 (ip), vehicle: Klucel (hydroxypropylcellulose) (HPC)
[14] = dose: 100.0 mg/kg/injection, schedule: Q01DX009 (ip), vehicle: saline with Tween-80
[15] = dose: 100.0 mg/kg/injection, schedule: Q01DX001 (ip), vehicle: carboxymethylcellulose (CMC)
[16] = dose: 200.0 mg/kg/injection, schedule: Q01DX001 (ip), vehicle: carboxymethylcellulose (CMC)
[17] = dose: 400.0 mg/kg/injection, schedule: Q01DX001 (ip), vehicle: carboxymethylcellulose (CMC)

Measured: T/C

CC(=O)N(CC(=O)O)c1ccccc1
inactive: [1] 101 % of control | [2] 103 % of control | [3] 98 % of control

CCCN1C(c2ccccc2)=CN(Cc2ccccc2)C=C1c1ccccc1
inactive: dose: 100.0 mg/kg/injection, schedule: Q04DX002 (ip), vehicle: Klucel (hydroxypropylcellulose) (HPC) 95 % of control | dose: 200.0 mg/kg/injection, schedule: Q04DX002 (ip), vehicle: Klucel (hydroxypropylcellulose) (HPC) 103 % of control | dose: 400.0 mg/kg/injection, schedule: Q04DX002 (ip), vehicle: Klucel (hydroxypropylcellulose) (HPC) 106 % of control

CC(C)C(=O)OCP(=O)(COC(=O)C(C)C)COC(=O)C(C)C
inactive: [1] 92 % of control | [2] 97 % of control | [3] 93 % of control

C(=C/c1ccccc1)/C=N/Nc1ccccc1
inactive: [4] 98 % of control | [5] 95 % of control | [6] 92 % of control

O=C(NNCN1C(=O)c2ccccc2C1=O)c1ccccc1
inactive: [7] 90 % of control

CC(C)=C1C2C=CC1C(C(=O)N(C)C)C2C(=O)N(C)C (configuration not stated)
inactive: [8] 96 % of control | [9] 113 % of control | dose: 200.0 mg/kg/injection, schedule: Q01DX009 (ip), vehicle: saline 98 % of control | [10] 108 % of control | dose: 400.0 mg/kg/injection, schedule: Q01DX009 (ip), vehicle: saline 104 % of control | dose: 400.0 mg/kg/injection, schedule: Q04DX003 (ip), vehicle: saline 100 % of control

COc1ccc(/C=C2\N=C(c3ccco3)OC2=O)cc1Br
inactive: [11] 94 % of control | [12] 94 % of control | [13] 91 % of control

COC(=O)C12C=CC(C1)n1c(=O)n(-c3ccccc3)c(=O)n12 (configuration not stated)
inactive: [1] 97 % of control | [2] 105 % of control | [3] 103 % of control

CN(C)C(=O)N/N=C/c1ccc(Cl)cc1
inactive: [14] 95 % of control | [7] 92 % of control

Cc1ccc(Nc2nc(N)nc(N)c2C=O)cc1
inactive: dose: 50.0 mg/kg/injection, schedule: Q01DX001 (ip), vehicle: alcohol 89 % of control | dose: 100.0 mg/kg/injection, schedule: Q01DX001 (ip), vehicle: alcohol 86 % of control | dose: 200.0 mg/kg/injection, schedule: Q01DX001 (ip), vehicle: alcohol 102 % of control | dose: 400.0 mg/kg/injection, schedule: Q01DX001 (ip), vehicle: alcohol 86 % of control

C=CC1C(C(=O)Nc2ccccc2)CN1C (configuration not stated)
inactive: [1] 107 % of control | [2] 107 % of control | [3] 116 % of control

CC1(C)N=C(N)N=C(N)N1c1ccc(OCCCc2ccccc2)c([N+](=O)[O-])c1
inactive: [11] 103 % of control | [12] 103 % of control

CN(C)CC1C2C=CC(C2)C1CN(C)C (configuration not stated)
inactive: [9] 96 % of control | [10] 91 % of control

COc1cc(C(=O)O)c(Br)cc1C
inactive: [11] 111 % of control | [4] 103 % of control | [12] 103 % of control | [5] 93 % of control | [13] 98 % of control | [6] 95 % of control

CC(N)CCC(C)(C)O (configuration not stated)
inactive: dose: 50.0 mg/kg/injection, schedule: Q01DX009 (ip), vehicle: saline 93 % of control | [8] 90 % of control

N/C(=N/N=C/c1ccncc1)N/N=C\c1ccncc1
inactive: dose: 30.0 mg/kg/injection, schedule: Q01DX Z (ip), vehicle: carboxymethylcellulose (CMC) 89 % of control | dose: 30.0 mg/kg/injection, schedule: Q01DX Z (oral), vehicle: carboxymethylcellulose (CMC) 106 % of control | dose: 60.0 mg/kg/injection, schedule: Q01DX Z (ip), vehicle: carboxymethylcellulose (CMC) 87 % of control | dose: 60.0 mg/kg/injection, schedule: Q01DX Z (oral), vehicle: carboxymethylcellulose (CMC) 95 % of control | dose: 120.0 mg/kg/injection, schedule: Q01DX Z (ip), vehicle: carboxymethylcellulose (CMC) 92 % of control | dose: 120.0 mg/kg/injection, schedule: Q01DX Z (oral), vehicle: carboxymethylcellulose (CMC) 97 % of control and 123 % of control | dose: 240.0 mg/kg/injection, schedule: Q01DX Z (oral), vehicle: carboxymethylcellulose (CMC) 101 % of control and 104 % of control | dose: 480.0 mg/kg/injection, schedule: Q01DX Z (oral), vehicle: carboxymethylcellulose (CMC) 101 % of control

O=C1NC(=O)C2C3C(C(O)(c4ccccc4)c4ccccn4)=CC(/C3=C(\c3ccccc3)c3ccccn3)C12 (configuration not stated)
inactive: dose: 0.5 mg/kg/injection, schedule: Q01DX010 (ip), vehicle: saline 101 % of control | dose: 1.0 mg/kg/injection, schedule: Q01DX010 (ip), vehicle: saline 93 % of control | dose: 2.0 mg/kg/injection, schedule: Q01DX010 (ip), vehicle: saline 101 % of control | dose: 2.0 mg/kg/injection, schedule: Q01DX010 (oral), vehicle: saline 96 % of control | dose: 4.0 mg/kg/injection, schedule: Q01DX010 (ip), vehicle: saline 93 % of control | dose: 4.0 mg/kg/injection, schedule: Q01DX010 (oral), vehicle: saline 96 % of control | dose: 8.0 mg/kg/injection, schedule: Q01DX010 (oral), vehicle: saline 96 % of control | dose: 16.0 mg/kg/injection, schedule: Q01DX010 (oral), vehicle: saline 96 % of control | [15] 98 % of control | [16] 102 % of control | [17] 104 % of control

COc1ccc(/C(C)=N\OC(=O)N(C)C)c(OC)c1
inactive: [15] 100 % of control | [16] 100 % of control | [17] 103 % of control

O=P(c1ccccc1)(c1ccccc1)C(Nc1ccc(Cl)cc1)c1ccco1 (configuration not stated)
inactive: dose: 400.0 mg/kg/injection, schedule: Q01DX009 (ip), vehicle: gum acacia 92 % of control

CS(=O)(=O)OCCC(COS(C)(=O)=O)S(=O)(=O)CCCOc1ccccc1-c1ccccc1 (configuration not stated)
inactive: dose: 50.0 mg/kg/injection, schedule: Q01DX009 (ip), vehicle: saline with Tween-80 94 % of control | [14] 94 % of control | [7] 94 % of control

C[CH2][Pb]([CH2]C)([CH2]C)[S]c1ccccn1
inactive: dose: 25.0 mg/kg/injection, schedule: Q04DX002 (sc), vehicle: olive oil, sesame oil, peanut oil 95 % of control | dose: 50.0 mg/kg/injection, schedule: Q04DX002 (sc), vehicle: olive oil, sesame oil, peanut oil 100 % of control | dose: 100.0 mg/kg/injection, schedule: Q04DX002 (sc), vehicle: olive oil, sesame oil, peanut oil 100 % of control

O=[N+]([O-])c1cc([N+](=O)[O-])c(Br)cc1Cl
inactive: dose: 10.0 mg/kg/injection, schedule: Q04DX003 (ip), vehicle: Klucel (hydroxypropylcellulose) (HPC) 93 % of control | dose: 20.0 mg/kg/injection, schedule: Q04DX003 (ip), vehicle: Klucel (hydroxypropylcellulose) (HPC) 96 % of control

O=C(O)c1cc(=O)c2c(OCC(O)COc3cccc4oc(C(=O)O)cc(=O)c34)cccc2o1
inactive: dose: 100.0 mg/kg/injection, schedule: Q01DX001 (ip), vehicle: saline 100 % of control | dose: 200.0 mg/kg/injection, schedule: Q01DX001 (ip), vehicle: saline 102 % of control | dose: 400.0 mg/kg/injection, schedule: Q01DX001 (ip), vehicle: saline 94 % of control

Cc1cc(N=Nc2ccc(N(C)C)cc2)ccn1
inactive: [4] 101 % of control | [5] 102 % of control | [6] 91 % of control

CCCCCCCCOC(=O)Nc1ccccc1
inactive: dose: 25.0 mg/kg/injection, schedule: Q01DX009 (ip), vehicle: Klucel (hydroxypropylcellulose) (HPC) 100 % of control | dose: 50.0 mg/kg/injection, schedule: Q01DX009 (ip), vehicle: Klucel (hydroxypropylcellulose) (HPC) 94 % of control | [11] 100 % of control

Cc1cc(Br)c2ccccc2c1N(CC(=O)O)S(=O)(=O)c1ccccc1
inactive: dose: 100.0 mg/kg/injection, schedule: Q01DX001 (ip), vehicle: saline sonified 97 % of control | [14] 91 % of control | dose: 200.0 mg/kg/injection, schedule: Q01DX001 (ip), vehicle: saline sonified 100 % of control | [7] 91 % of control | dose: 400.0 mg/kg/injection, schedule: Q01DX001 (ip), vehicle: saline sonified 97 % of control | dose: 400.0 mg/kg/injection, schedule: Q01DX009 (ip), vehicle: saline with Tween-80 97 % of control
